Assay results taken from patent US20090221640A1, “Novel Crystal Modifications” (ASTRAZENECA AB, priority 2006, published 2009).

How the values were obtained:
MMP12 = MMP12 (Homo sapiens, UniProt P39900); details: background statement, compound of WO 02/074767; cited from earlier work
[1] = Relative thermodynamic stability in suspension experiments (XRPD on precipitates); format: physicochemical
[2] = Humidity sorption by gravimetrical vapour sorption (GVS); format: physicochemical
Protocol: The gravimetric responses of test samples to changes in humidity were investigated using either a SGA 100 (VTI Corporation) or a DVS 2 (Surface Measurement System) Gravimetrical Vapour Sorption (GVS) instrument with the following features: Dry to 90% RH and back in steps of, for example, 10% RH.
Equilibrium condition: <0.01 weight-% per 10 minutes (<0.001 weight-%/min)
Approximately 5 mg of the test sample was placed in the cup and evaluated.

[3] = Thermal behaviour on heating (DSC and TGA); format: physicochemical; details: below 200° C.; neither solvent loss nor any other thermal event prior to melting
Protocol: The calorimetric response of a test sample to increasing temperature was investigated using a Q1000 Modulated Temperature Differential Scanning Calorimeter (MTDSC) (TA Instruments) using different methods, the main features being:
Normally modulated mode (“heat only”) with a ramp rate of 5° C./min (but also 1 and 20° C./min were used without modulation). The temperature range was from just below ambient to above 200° C.
Approximately 2 mg of the test sample was placed in an aluminium cups with a lid (no crimping).
The gravimetric response of test samples to increasing temperatures was investigated using a Q500 Thermal Gravimetric Analyser (TGA) (TA Instruments) using the following parameters:
Heating rate (normally): 5° C./min
Approximately 2 to 5 mg of the test sample was placed in the cup and heated to just above 200° C.

[4] = Solid-state storage stability (chemical and physical); format: physicochemical; details: 25° C./desiccated; 25° C./60% RH; 40° C./75% RH; examined after 2, 4, 8 and 12 weeks
Protocol: The solid-state stability of compound (I) Form G was studied under three sets of conditions: at 25° C./desiccated; at 25° C./60% RH; and at 40° C./75% RH. Samples were examined after 2, 4, 8 and 12 weeks and chemical and physical stability was evaluated.

MMP12, sequence (P39900 106-470): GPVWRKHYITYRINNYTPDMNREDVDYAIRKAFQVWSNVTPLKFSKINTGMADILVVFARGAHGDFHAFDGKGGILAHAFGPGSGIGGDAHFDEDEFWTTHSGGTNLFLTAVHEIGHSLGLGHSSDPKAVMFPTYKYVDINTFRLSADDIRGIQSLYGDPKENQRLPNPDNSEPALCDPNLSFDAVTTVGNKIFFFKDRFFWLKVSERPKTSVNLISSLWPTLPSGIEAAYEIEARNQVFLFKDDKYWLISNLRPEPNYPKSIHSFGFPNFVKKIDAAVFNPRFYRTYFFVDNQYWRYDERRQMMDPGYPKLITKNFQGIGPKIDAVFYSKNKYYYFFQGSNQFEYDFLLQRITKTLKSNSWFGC

**Q.** With `C[C@]1(CS(=O)(=O)N2CCC(Oc3ccc(Cl)cn3)CC2)NC(=O)NC1=O` [Compound (I), (5S)-5-[4-(5-chloro-pyridin-2-yloxy)-piperidine-1-sulfonylmethyl]-5-methyl-imidazolidine-2,4-dione] as the compound, how does the “MMP12 inhibition (in words)” value (MMP12) read?
**A.** potent inhibitor of MMP12

**Q.** For `C[C@]1(CS(=O)(=O)N2CCC(Oc3ccc(Cl)cn3)CC2)NC(=O)NC1=O` [Form A, (5S)-5-[4-(5-chloro-pyridin-2-yloxy)-piperidine-1-sulfonylmethyl]-5-methyl-imidazolidine-2,4-dione], which “conversion of crystal form in suspension (XRPD)” value ([1]; suspensions in organic solvents (ethanol, methanol, 1-propanol, 2-propanol, acetone or ethyl acetate)) is on record?
**A.** complete conversion into Form G

**Q.** With `C[C@]1(CS(=O)(=O)N2CCC(Oc3ccc(Cl)cn3)CC2)NC(=O)NC1=O` [compound (I) Form G, (S)-5-[4-(5-Chloro-pyridin-2-yloxy)-piperidine-1-sulfonylmethyl]-5-methyl-imidazolidine-2,4-dione Form G] as the compound, how does the humidity uptake ([2]; at 80% RH, GVS) read?
**A.** < 0.05%

**Q.** What about the hygroscopicity classification ([2]; criteria defined in the European Pharmacopoeia) of the same compound?
**A.** non-hygroscopic

**Q.** And the “thermal stability (DSC and TGA traces)” value [3]?
**A.** thermally stable

**Q.** And the “relative thermodynamic stability among the seven crystalline modifications” value ([1]; temperature range investigated (5 to 40° C.))?
**A.** thermodynamically most stable

**Q.** What about the “solid-state chemical and physical stability” value [4] of the same compound?
**A.** chemically and physically stable
